Measured values: US20250179121A1, “CYCLOSPORINE COMPOSITIONS AND METHODS OF USE” (Bacainn Biotherapeutics, Ltd., priority 2018, published 2025)
Values joined by “and” are separate entries in the source; they are usually repeats but may differ in a detail not shown here. Equal entries are not always repeated.

Tests used:
neutrophil migration = test: PMN transmigration assay (T84 monolayer infected with Salmonella typhimurium, MPO readout); type: cell-based, human
Experimental: PMN transmigration assay. T84 colorectal cancer cells were grown to confluence on the bottom side of 12 well polycarbonate membrane inserts of a 24 well Transwell® plate. The confluent growth of these epithelial cells results in physiologically-relevant apical (luminal) and basolateral surfaces in the transwells. […] The monolayer was then infected on the apical surface with Salmonella typhimurium for 2 hours to induce hepoxilin A3 (HXA3) efflux through the MRP2 membrane protein and into the apical chamber. […] Freshly isolated and prepared human neutrophils were then added to the basolateral side and allowed to transmigrate through the monolayer for 2 hours. The number of neutrophils migrated to the apical chamber (due to the HXA3 gradient) was then assayed by determination of myeloperoxidase activity (a neutrophil biomarker). Inhibition of transmigration is indicated by lower MPO activity in the apical chamber.

[1] = Rat PK, plasma concentrations after oral dosing; type: in vivo, Sprague-Dawley rats; details: for plasma concentration of BT070 (breakdown product of BT051): individual animals A-E
Experimental: [Worded in the source for another target; this target is reported under the same test.] Blood samples were collected at the indicated time points and processed to plasma. Plasma concentrations of BT090 were assayed by LC-MS/MS. Feces were collected over t=0 to 4 h, 4-8 h, and 8-24 h, homogenized in buffer and assayed for BT090 concentrations by LC-MS/MS. Total feces weight collected for each time interval was recorded. BT090 was formulated in 1% NMP, 0.3% Tween-80 in 0.5% methylcellulose.

[2] = Amount excreted in feces after oral dosing in rats; type: in vivo, Sprague-Dawley rats; details: rat; for Conc. in feces: BT070 10 mg/kg oral, individual animals A-C, corrected for the 1:9 dilution factor
[3] = BT070 10 mg/kg oral, rat, individual animals A-C, 10 mg/kg

CC[C@@H]1NC(=O)[C@H]([C@H](O)[C@H](C)CCCCCC(=O)O)N(C)C(=O)[C@H](C(C)C)N(C)C(=O)[C@H](CC(C)C)N(C)C(=O)[C@H](CC(C)C)N(C)C(=O)[C@@H](C)NC(=O)[C@H](C)NC(=O)[C@H](CC(C)C)N(C)C(=O)[C@H](C(C)C)NC(=O)[C@H](CC(C)C)N(C)C(=O)CN(C)C1=O [BT070]
inhibition of neutrophil migration, dose-response (neutrophil migration; FIG. 1): dose-responsive inhibition | inhibition of neutrophil migration (neutrophil migration; dose of 100 nM): exhibit inhibition of neutrophil migration | IC50 (neutrophil migration; read-out: compound concentration at which 50% inhibition of neutrophil migration was observed, FIG. 1 dose-response): 31.2 nM | plasma concentration, Mean ([1]; BT070 10 mg/kg oral, rat, 0.5 h, mean): 3588.6 ng/mL | plasma concentration, Mean ([1]; BT070 10 mg/kg oral, rat, 1 h, mean): 2301.5 ng/mL | plasma concentration, Mean ([1]; BT070 10 mg/kg oral, rat, 2 h, mean): 1522.8 ng/mL | plasma concentration, Mean ([1]; BT070 10 mg/kg oral, rat, 4 h, mean): 829.6 ng/mL | plasma concentration, Mean ([1]; BT070 10 mg/kg oral, rat, 6 h, mean): 488.3 ng/mL | plasma concentration, Mean ([1]; BT070 10 mg/kg oral, rat, 8 h, mean): 293.9 ng/mL | plasma concentration, Mean ([1]; BT070 10 mg/kg oral, rat, 24 h, mean): 101.2 ng/mL | AUCinf [1, 3]: 17616.8 ng/mL * h and 19158.4* ng/mL * h and 7432.0 ng/mL * h | AUClast [1, 3]: 17560.9 ng·h/mL and 11798.3 ng·h/mL and 7249.5 ng·h/mL | AUCinf, Mean ([1]; BT070 10 mg/kg oral, rat, mean): 14735.7 ng·h/mL | AUClast, Mean ([1]; BT070 10 mg/kg oral, rat, mean): 12202.9 ng·h/mL | plasma concentration of BT070 (breakdown product of BT051) ([1]; after BT051 10 mg/kg oral, rat, 0.5 h): 3.3 ng/mL and NQ (Not quantifiable. No peak or below limit of quantification (LOQ = 2.5 ng/mL)) (4×) | plasma concentration of BT070 (breakdown product of BT051), Mean ([1]; after BT051 10 mg/kg oral, rat, 0.5 h, mean): 3.3 ng/mL | plasma concentration of BT070 (breakdown product of BT051) ([1]; after BT051 10 mg/kg oral, rat, 1 h): NQ (Not quantifiable. No peak or below limit of quantification (LOQ = 2.5 ng/mL)) | plasma concentration of BT070 (breakdown product of BT051) ([1]; after BT051 10 mg/kg oral, rat, 2 h): NQ (Not quantifiable. No peak or below limit of quantification (LOQ = 2.5 ng/mL)) | plasma concentration of BT070 (breakdown product of BT051) ([1]; after BT051 10 mg/kg oral, rat, 4 h): NQ (Not quantifiable. No peak or below limit of quantification (LOQ = 2.5 ng/mL)) | plasma concentration of BT070 (breakdown product of BT051) ([1]; after BT051 10 mg/kg oral, rat, 6 h): NQ (Not quantifiable. No peak or below limit of quantification (LOQ = 2.5 ng/mL)) | plasma concentration of BT070 (breakdown product of BT051) ([1]; after BT051 10 mg/kg oral, rat, 8 h): NQ (Not quantifiable. No peak or below limit of quantification (LOQ = 2.5 ng/mL)) | plasma concentration of BT070 (breakdown product of BT051) ([1]; after BT051 10 mg/kg oral, rat, 24 h): NQ (Not quantifiable. No peak or below limit of quantification (LOQ = 2.5 ng/mL)) | Cmax of BT070 (breakdown product of BT051) ([1]; after BT051 10 mg/kg oral, rat, individual animals): 3.3 ng/mL | Cmax of BT070 (breakdown product of BT051), Mean ([1]; after BT051 10 mg/kg oral, rat, mean): 3.3 ng/mL | detection in the plasma from 15 minutes to 24 hours ([1]; compound dosed orally in rats at 10 mg/kg): present in the plasma in all subject rats | oral bioavailability of the breakdown product of BT051 ([1]; following oral administration of BT051 in rats at 10 mg/kg): not orally bioavailable | Conc. in feces ([2]; 0-4 h): NQ (Not quantifiable. No peak or below limit of quantification (LOQ = 1000 ng/mL)) | Conc. in feces ([2]; 4-8 h): NQ (Not quantifiable. No peak or below limit of quantification (LOQ = 1000 ng/mL)) | Total amount of BT070 (breakdown product of BT051) excreted in feces ([2]; after BT051 10 mg/kg oral, 0-48 h, individual animals A-D): 36.9 µg and 33.4 µg and 41.4 µg and 38.5 µg | Amount of BT070 (breakdown product of BT051) excreted in feces ([2]; after BT051 10 mg/kg oral, 8-24 h, individual animals A-D): 31.2 µg and 14.3 µg and 10.6 µg and 34.8 µg | Amount of BT070 (breakdown product of BT051) excreted in feces ([2]; after BT051 10 mg/kg oral, 24-48 h, individual animals A-D): 5.7 µg and 19.1 µg and 30.8 µg and 3.7 µg
